Laboratory results taken from the NIST ThermoML archive (doi:10.1016/j.jct.2018.08.035).
Several values for one entry are separate records, joined by “and”; a condition that tells them apart may be missing. Equal entries are not always repeated. Numbers after ± are expanded uncertainties.

Assay: xn = mol fraction of the nth substance listed
Conditions: 100 kPa, Liquid, Vibrating tube method

CCC(O)CC [3-pentanol] + C[N+](=O)[O-]
mass density
Conditions | 294.15 K | 295.15 K | 295.16 K | 296.15 K | 296.16 K | 297.15 K | 297.16 K | 298.15 K
x1 = 0.246 | – | 1001.66 ± 2.2 kg/m3 | – | – | 1000.44 ± 2.2 kg/m3 | 999.224 ± 2.2 kg/m3 | – | 998.021 ± 2.2 kg/m3
x1 = 0.266 | – | 993.153 ± 2.2 kg/m3 | – | – | 991.939 ± 2.2 kg/m3 | 990.728 ± 2.2 kg/m3 | – | 989.517 ± 2.2 kg/m3
x1 = 0.275 | – | 989.651 ± 2.1 kg/m3 | – | 988.439 ± 2.1 kg/m3 | – | – | 987.23 ± 2.1 kg/m3 | 986.032 ± 2.1 kg/m3
x1 = 0.3 | – | 980.26 ± 2.1 kg/m3 | – | – | 979.058 ± 2.1 kg/m3 | 977.857 ± 2.1 kg/m3 | – | 976.66 ± 2.1 kg/m3
x1 = 0.325 | – | 970.983 ± 2.1 kg/m3 | – | – | 969.786 ± 2.1 kg/m3 | 968.596 ± 2.1 kg/m3 | – | 967.413 ± 2.1 kg/m3
x1 = 0.338 | – | 966.179 ± 2.1 kg/m3 | – | 964.988 ± 2.1 kg/m3 | – | 963.801 ± 2.1 kg/m3 | – | 962.62 ± 2.1 kg/m3
x1 = 0.363 | 958.817 ± 2.1 kg/m3 | 957.627 ± 2.1 kg/m3 | – | – | 956.447 ± 2.1 kg/m3 | 955.27 ± 2.1 kg/m3 | – | 954.105 ± 2.1 kg/m3
x1 = 0.382 | 952.329 ± 2 kg/m3 | 951.15 ± 2 kg/m3 | – | 949.976 ± 2 kg/m3 | – | 948.809 ± 2 kg/m3 | – | 947.647 ± 2 kg/m3
x1 = 0.407 | 944.215 ± 2 kg/m3 | 943.045 ± 2 kg/m3 | – | – | 941.881 ± 2 kg/m3 | 940.724 ± 2 kg/m3 | – | 939.572 ± 2 kg/m3
x1 = 0.414 | 941.945 ± 2 kg/m3 | 940.778 ± 2 kg/m3 | – | 939.619 ± 2 kg/m3 | – | 938.464 ± 2 kg/m3 | – | 937.32 ± 2 kg/m3 and 937.319 ± 2 kg/m3
x1 = 0.486 | 920.751 ± 2 kg/m3 | 919.625 ± 2 kg/m3 | – | – | 918.503 ± 2 kg/m3 | 917.385 ± 2 kg/m3 | – | 916.279 ± 2 kg/m3
x1 = 0.488 | 920.031 ± 2 kg/m3 | 918.905 ± 2 kg/m3 | – | – | 917.785 ± 2 kg/m3 | 916.67 ± 2 kg/m3 | – | 915.564 ± 2 kg/m3
x1 = 0.546 | 904.649 ± 1.9 kg/m3 | 903.56 ± 1.9 kg/m3 | – | – | 902.476 ± 1.9 kg/m3 | – | 901.393 ± 1.9 kg/m3 | 900.318 ± 1.9 kg/m3
x1 = 0.573 | 897.886 ± 1.9 kg/m3 | – | 896.815 ± 1.9 kg/m3 | – | 895.746 ± 1.9 kg/m3 | 894.678 ± 1.9 kg/m3 | – | 893.615 ± 1.9 kg/m3
x1 = 0.587 | 894.274 ± 1.9 kg/m3 | 893.213 ± 1.9 kg/m3 | – | – | 892.153 ± 1.9 kg/m3 | – | 891.096 ± 1.9 kg/m3 | 890.042 ± 1.9 kg/m3
x1 = 0.615 | 887.502 ± 1.9 kg/m3 | 886.458 ± 1.9 kg/m3 | – | 885.416 ± 1.9 kg/m3 | – | 884.375 ± 1.9 kg/m3 | – | 883.332 ± 1.9 kg/m3
x1 = 0.629 | 884.073 ± 1.9 kg/m3 | 883.039 ± 1.9 kg/m3 | – | – | 882.004 ± 1.9 kg/m3 | 880.972 ± 1.9 kg/m3 | – | 879.94 ± 1.9 kg/m3
